According to patent US12653776B2, “Methods of treatment of cancer by continuous infusion of coenzyme Q10” (priority 2013, dated 2026):
Read-outs that look alike come from different tables or passages of the source.

Legend:
[1] = in vivo
Description: The first-in-human Phase 1 study with coenzyme Q10 nanosuspension (40 mg/ml) was conducted in 50 patients with advanced solid tumors. The objectives were to assess the safety, maximum tolerated dose, PK and PD of coenzyme Q10, specifically a 4% coenzyme Q10 nanosuspension formulation (as described in WO 2011/112900, the entire contents of which are expressly incorporated herein by reference), administered as a 4-hour IV infusion 3 times weekly in 28-day cycles. […] Plasma concentration profiles and PK parameters were determined from blood samples collected pre-dose and at intervals to 48 hours post-dose.

[2] = system: cancer cell lines HT-29, A549, Hep3B, MDA-MB231, SkBr-3, MCF7, MiaPaCa-2, SKOV-3, PC-3; assay: Cancer cell line viability in vitro; type: cell-based; details: 100 μM coenzyme Q10; evident as early as 24 hours, increased progressively between 48 and 72 hours; all cell lines tested
Description: Various cancer cell lines were treated with coenzyme Q10 at 100 μM concentration to determine the effect on cancer cell viability. The cancer cell lines tested were HT-29 (colon), A549 (lung), Hep3B (liver), MDA-MB231 (breast), SkBr-3 (breast), MCF7 (breast), MiaPaCa-2 (pancreas), SKOV-3 (ovary), and PC-3 (prostate). Cell viability was measured between 24 and 72 hours. […] For example. […] The text at the bottom of the graph in FIG. 6 represents the gene mutation and mutation rate for each cell line. For example, the HT-29 cell line contains the APC mutation with a mutation rate of 126.

[3] = Description: In the Phase 1a portion of the trial, patients who meet eligibility parameters receive 2 consecutive 48-hour infusions of coenzyme Q10 twice weekly on Monday and Wednesday (i.e., Days 1, 3, 8, 10, 15, 17, 22, and 24), essentially receiving coenzyme Q10 treatment for 96 hours per week of each 28-day cycle. At each dose level of Arm 1 and Arm 2, patients are treated for either 8 hours at minimum of outpatient monitoring or inpatient monitoring for the first 24-hrs of the first infusion of Cycle 1. All other treatments are administered in an outpatient setting. Dose limiting toxicities are assessed during Cycle 1.
The study is a standard 3+3 dose escalation design with the dose escalated in successive cohorts of 3 to 6 patients each. Toxicity at each dose level is graded according to National Cancer Institute Common Terminology Criteria for Adverse Events (CTCAE v4.02). Safety oversight is provided by the Cohort Review Committee (CRC). The CRC reviews and confirms all DLTs and monitor safety throughout the study (including Arm 2).
The 2 doses are administered over 4 consecutive days, i.e., the first dose on Monday-Wednesday and the second dose on Wednesday-Friday of each week. The study drug is administered undiluted via a central venous access device and the infusion rate is controlled by a programmable ambulatory infusion pump such as the CADD Prizm VIP (model 6101) ambulatory pump.
At each dose level of Arm 1 and Arm 2, patients are treated for either 8 hours at minimum of outpatient monitoring or inpatient monitoring for the first 24-hrs of the first infusion of Cycle 1. Patients are monitored for dose-limiting toxicity (DLT) or an AE that requires prolonged hospitalization. If no reaction to coenzyme Q10 develops, the patient will be discharged.
For the second dose of each week (i.e., on Days 3, 10, 17, and 24 of the cycle) the total dose volume are given over 48 hours with no loading dose as indicated in Table 6 below. Coenzyme Q10 Nanosuspension for Injection Dose Cohorts (Arm 1; Monotherapy).

[4] = Phase 1a/b study, 96-hour continuous IV infusion: pharmacokinetics; type: in vivo, human
Description: Blood samples for pharmacokinetic and pharmacodynamic analyses are collected during each cycle of monotherapy and combination therapy. Urine samples for determination of coenzyme Q10 renal clearance are collected only during Cycle 1 of monotherapy and combination therapy. A PET scan is performed within 2 weeks prior to starting treatment and after 2 weeks of coenzyme Q10 treatment, and 8 weeks of treatment on Arm 1 or 10 weeks of treatment on Arm 2. Core biopsies (2-3) are performed at the time of baseline and Week 2 PET scan for patients who opt-in to participate in these exploratory studies.

[5] = system: H522 human lung cancer cells; assay: H522 human lung cancer rat model, survival; type: in vivo, rats
Description: The effect of coenzyme Q10 dosing regimens was further investigated in rats implanted with H522 human lung cancer cells. Rats were randomized to receive either no treatment (control), continuous infusion with coenzyme Q10, chemotherapy, or a combination of coenzyme Q10 and chemotherapy. The dose of coenzyme Q10 was 50 mg/kg per day over 24 hours and the concentration was 4%. The chemotherapy was repeated on a three week cycle as follows: week 1: I.V. Cyclophosphamide, 35 mg/kg, 1×/wk and I.V. Doxorubicin 2.5 mg/kg, 3×/wk; Weeks 2-3: no treatment.

[6] = combination with gemcitabine, Dose level 1 (50 mg/kg)

Substance: coenzyme Q10
- Tmax and Cmax ([1]; human): generally associated with the end of the infusion
- AUC0-168 (estimated weekly) ([1]; human, 176 mg/kg): 68,787 μg*hr/mL
- Cmax (estimated weekly) ([1]; human, 176 mg/kg): 1,558 μg/mL
- AUC0-168 (estimated weekly) ([1]; human, 235 mg/kg): 74,640 μg*hr/mL
- Cmax (estimated weekly) ([1]; human, 235 mg/kg): 1,592 μg/mL
- AUC0-168 (estimated weekly) ([1]; human, 313 mg/kg): 125,953 μg*hr/mL
- Cmax (estimated weekly) ([1]; human, 313 mg/kg): 2,198 μg/mL
- t1/2 ([1]; human, iv): 2.18 to 18.0 h
- accumulation with increasing duration of dosing [1]: no apparent accumulation
- dose-proportionality ([1]; 22.5 mg/kg): dose-proportionality appeared linear
- cell viability [2]: decrease in cell viability
- safety issues ([3]; combination with 5-Fluorouracil, Dose level 1 (50 mg/kg)): No 5FU-related issued
- dose level evaluation ([3]; combination with 5-Fluorouracil, Dose level 2 (66 mg/kg)): Dose level cleared
- safety issues ([3]; combination with docetaxel, Dose level 1 (50 mg/kg)): No docetaxel-related issued
- issues or DLTs ([3]; combination with docetaxel, Dose level 2 (66 mg/kg)): No issues or DLTs
- issues or DLTs ([3]; combination with docetaxel, Dose level 3 (kg mg/kg), evaluation ongoing): No issues or DLTs
- dose-limiting toxicity (DLT) [3, 6]: no DLT
- thrombocytopenia (gemcitabine-related adverse event) [3, 6]: Mild to moderate thrombocytopenia
- bleeding events ([3]; continuous infusion protocol): No bleeding events were reported
- coagulation abnormalities ([3]; continuous infusion protocol with aggressive pre-loading or treatment with Vitamin K): minimal coagulation abnormalities
- overall safety ([3]; current dose levels, continuous infusion): safe at the current levels
- dose-limiting toxicity (DLT) ([3]; monotherapy Dose Level 1 (66 mg/kg), 9 subjects, grade 3 GGT): 1 DLT
- dose-limiting toxicity (DLT) ([3]; monotherapy Dose Level 2 (88 mg/kg), 4 subjects): 0 DLT
- dose-limiting toxicity (DLT) ([3]; monotherapy Dose Level 3 (110 mg/kg), 4 subjects, evaluation ongoing): 0 DLT
- safety and tolerability ([3]; monotherapy and combination therapy, initial results): safe and well tolerated
- triglycerides ([3]; no clinical significance): Transient elevation of triglycerides
- adverse events with increased infusion duration ([3]; vs four hour infusion at higher rate, expected at the end of the ongoing study): decrease adverse events
- increase in the intratumor concentration of Coenzyme Q11 ([4]; Patient 1, gastric adenocarcinoma, dose level 1 (66 mg/kg week)): 15 fold
- pharmacokinetics ([4]; initial tested doses): linear distribution
- animal survival ([5]; continuous infusion 50 mg/kg per day combined with chemotherapy (cyclophosphamide + doxorubicin)): more effective than either treatment alone
- animal survival ([5]; continuous infusion alone, 50 mg/kg per day over 24 hours, 4%, vs cyclophosphamide + doxorubicin): more effective than chemotherapy alone
